According to patent publication US9957273B2, “5-substituted 7- [4-(2-pyridyl)phenylmethylamino] -3-isopropylpyrazolo4,3-D]pyrimidine derivatives, use thereof as medicaments, and pharmaceutical compositions” (USTAV EXPERIMENTALNI BOTANIKY AV CR, V.V.I., priority 2015, dated 2018):

Experiments:
[1] = tested on: K562 (human chronic myelogenous leukaemia); experiment: MTT cytotoxicity assay, leukemic cell line K562; format: cell-based; settings: Homo sapiens, K562, 72 h, three days
Description: (§1) Cytotoxicity of the compounds is the major property determining their antileukemic efficacy in vivo. One of the parameters used, as the basis for cytotoxicity assays, is the metabolic activity of viable cells. For example, a microtiter assay, which uses (3-(4,5-dimethylthiazol-2-yl)-2,5-diphenyltetrazolium bromide (MTT), is widely used to quantitate cell proliferation and cytotoxicity. This assay is widely used in drug screening programs and in chemosensitivity testing. Because only metabolically active living cells reduce MTT to correspond purple formazan dye, these assays detect viable cells exclusively. The quantity of reduced MTT corresponds to the number of vital cells in the culture.
(§2) The compounds were assayed using the following leukemic cell lines: K562 (human chronic myelogenous leukaemia), HL60 (human promyelocytic leukaemia), CEM (human lymphoblastoid leukaemia), THP1 (human monocytic cell line), MV4; 11 (acute myelocytic leukemia). All cell lines were grown in RPMI medium supplemented with fetal bovine serum and L-glutamine and maintained at 37° C. in a humidified atmosphere with 5% CO2. For cytotoxicity assays, 2000-5000 cells were seeded into each well of 96 well plate, allowed to stabilize for at least 8 h and then tested compounds were added at various concentrations ranging from 100 to 0.01 μM in triplicates. After three days, MTT solution (5 mg/ml; Sigma, St. Louis, USA) was added to cells and medium was replaced with DMSO after five hours. The absorbance was measured at 620 nm by employing a microplate reader. MTT assays were repeated 3 times for each drug application and untreated cells were used as reference.

[2] = tested on: HL60 (human promyelocytic leukaemia); experiment: MTT cytotoxicity assay, leukemic cell line HL60; format: cell-based; settings: Homo sapiens, HL-60, 72 h, three days
Description: as §1, §2

[3] = tested on: CEM (human lymphoblastoid leukaemia); experiment: MTT cytotoxicity assay, leukemic cell line CEM; format: cell-based; settings: Homo sapiens, 72 h, three days
Description: as §1, §2

[4] = tested on: THP1 (human monocytic cell line); experiment: MTT cytotoxicity assay, leukemic cell line THP1; format: cell-based; settings: Homo sapiens, THP-1, 72 h, three days
Description: as §1, §2

[5] = tested on: MV4;11 (acute myelocytic leukemia); experiment: MTT cytotoxicity assay, leukemic cell line MV4;11; format: cell-based; settings: Homo sapiens, MV4-11, 72 h, three days
Description: as §1, §2

[6] = tested on: G361 (malignant melanoma); experiment: MTT cytotoxicity assay, solid cancer cell line G361; format: cell-based; settings: Homo sapiens, G-361, 72 h, three days
Protocol: as §2, with “following” for “following leukemic”, “G361 (malignant melanoma), MCF7 (breast adenocarcinoma), PLC/PRF/5 (liver hepatoma), PANC-1 (pancreatic carcinoma) and HCT116 (colon carcinoma).” for “K562 (human chronic myelogenous leukaemia), HL60 (human promyelocytic leukaemia), CEM (human lymphoblastoid leukaemia), THP1 (human monocytic cell line), MV4; 11 (acute myelocytic leukemia).”, “DMEM” for “RPMI”, “4000-10000” for “2000-5000”, “of a” for “of”, “16” for “8”

[7] = tested on: MCF7 (breast adenocarcinoma); experiment: MTT cytotoxicity assay, solid cancer cell line MCF7; format: cell-based; settings: Homo sapiens, MCF7, 72 h, three days
Protocol: as §2, with “following” for “following leukemic”, “G361 (malignant melanoma), MCF7 (breast adenocarcinoma), PLC/PRF/5 (liver hepatoma), PANC-1 (pancreatic carcinoma) and HCT116 (colon carcinoma).” for “K562 (human chronic myelogenous leukaemia), HL60 (human promyelocytic leukaemia), CEM (human lymphoblastoid leukaemia), THP1 (human monocytic cell line), MV4; 11 (acute myelocytic leukemia).”, “DMEM” for “RPMI”, “4000-10000” for “2000-5000”, “of a” for “of”, “16” for “8”

[8] = tested on: PLC/PRF/5 (liver hepatoma); experiment: MTT cytotoxicity assay, solid cancer cell line PLC/PRF/5; format: cell-based; settings: Homo sapiens, PLC-PRF-5, 72 h, three days
Protocol: as §2, with “following” for “following leukemic”, “G361 (malignant melanoma), MCF7 (breast adenocarcinoma), PLC/PRF/5 (liver hepatoma), PANC-1 (pancreatic carcinoma) and HCT116 (colon carcinoma).” for “K562 (human chronic myelogenous leukaemia), HL60 (human promyelocytic leukaemia), CEM (human lymphoblastoid leukaemia), THP1 (human monocytic cell line), MV4; 11 (acute myelocytic leukemia).”, “DMEM” for “RPMI”, “4000-10000” for “2000-5000”, “of a” for “of”, “16” for “8”

[9] = tested on: PANC-1 (pancreatic carcinoma); experiment: MTT cytotoxicity assay, solid cancer cell line PANC-1; format: cell-based; settings: Homo sapiens, PANC-1, 72 h, three days
Protocol: as §2, with “following” for “following leukemic”, “G361 (malignant melanoma), MCF7 (breast adenocarcinoma), PLC/PRF/5 (liver hepatoma), PANC-1 (pancreatic carcinoma) and HCT116 (colon carcinoma).” for “K562 (human chronic myelogenous leukaemia), HL60 (human promyelocytic leukaemia), CEM (human lymphoblastoid leukaemia), THP1 (human monocytic cell line), MV4; 11 (acute myelocytic leukemia).”, “DMEM” for “RPMI”, “4000-10000” for “2000-5000”, “of a” for “of”, “16” for “8”

HCT116 (colon carcinoma) = experiment: MTT cytotoxicity assay, solid cancer cell line HCT116; format: cell-based; settings: Homo sapiens, HCT-116, 72 h, three days
Protocol: as §2, with “following” for “following leukemic”, “G361 (malignant melanoma), MCF7 (breast adenocarcinoma), PLC/PRF/5 (liver hepatoma), PANC-1 (pancreatic carcinoma) and HCT116 (colon carcinoma).” for “K562 (human chronic myelogenous leukaemia), HL60 (human promyelocytic leukaemia), CEM (human lymphoblastoid leukaemia), THP1 (human monocytic cell line), MV4; 11 (acute myelocytic leukemia).”, “DMEM” for “RPMI”, “4000-10000” for “2000-5000”, “of a” for “of”, “16” for “8”

CDK5/p35 = target: T1, CDK5/p35 (Homo sapiens, UniProt Q00535); experiment: CDK5/p35 kinase inhibition (33P-ATP, histone H1); format: biochemical; settings: 0.15 μM ATP
T1 construct: purchased ProQinase GmbH
T1 sequence (Q00535 whole entry): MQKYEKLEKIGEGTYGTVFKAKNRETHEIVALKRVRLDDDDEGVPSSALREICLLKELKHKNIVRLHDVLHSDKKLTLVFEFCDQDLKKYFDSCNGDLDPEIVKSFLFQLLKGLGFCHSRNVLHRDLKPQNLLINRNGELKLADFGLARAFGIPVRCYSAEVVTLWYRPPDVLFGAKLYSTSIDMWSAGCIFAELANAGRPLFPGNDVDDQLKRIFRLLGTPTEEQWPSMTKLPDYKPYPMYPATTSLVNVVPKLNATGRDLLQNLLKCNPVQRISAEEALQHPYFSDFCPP
T1 sequence (Q15078 whole entry partner): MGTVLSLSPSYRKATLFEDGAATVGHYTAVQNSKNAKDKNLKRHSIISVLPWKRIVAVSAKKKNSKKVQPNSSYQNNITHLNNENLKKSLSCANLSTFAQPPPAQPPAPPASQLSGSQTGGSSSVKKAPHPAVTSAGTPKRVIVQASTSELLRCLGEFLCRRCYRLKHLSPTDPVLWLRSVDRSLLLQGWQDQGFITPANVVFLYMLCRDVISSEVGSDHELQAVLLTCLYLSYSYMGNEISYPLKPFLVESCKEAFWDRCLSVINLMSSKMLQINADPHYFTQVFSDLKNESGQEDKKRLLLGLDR
Protocol: CDK2/Cyclin E kinase was produced in Sf9 insect cells via baculoviral infection and purified on a NiNTA column (Qiagen). […] CDK5/p35 was purchased from ProQinase GmbH.
The reactions were stopped by adding 5 μL of 3% aq H3PO4. Aliquots were spotted onto P-81 phosphocellulose (Whatman), washed 3× with 0.5% aq H3PO4 and finally air-dried.

[10] = tested on: caspases 3 and 7 in K562 cells; experiment: Caspase-3/7 activity assay in K562 cells; format: cell-based, human; settings: 24 hours, FIG. 2
Protocol: Measurement of proapoptotic properties of new compounds was based on quantification of enzymatic activities of caspases-3/7. Activity of cellular caspase-3/7 was measured according to Carrasco et al., 2003, BioTechniques, 34(5): 1064-67. Briefly, the cells were incubated in a 96-well plate overnight. Next day, the compounds in appropriate concentrations were added and cells were incubated for 24 hours. After incubation, 3× caspase-3/7 assay buffer (150 mM HEPES pH 7.4, 450 mM NaCl, 150 mM KCl, 30 mM MgCl2, 1.2 mM EGTA, 1.5% Nonidet P40, 0.3% CHAPS, 30% sucrose, 30 mM DTT, 3 mM PMSF) with 150 μM Ac-DEVD-AMC as a substrate (Sigma-Aldrich) was added to the wells and plates were incubated at 37° C. […]. The caspase activity was measured using Fluoroskan Ascent microplate reader (Labsystems) at 346 nm/442 nm (excitation/emission).

[11] = tested on: HUVECs (human umbilical vein endothelial cells); experiment: HUVEC proliferation assay (crystal violet); format: cell-based; settings: Homo sapiens, HUVEC, 72 h, read-out: Inhibition of proliferation (EC50)
Protocol: (§3) To verify that novel compounds have anti-vascularisation properties, we analyzed their influence on the proliferation and migration of HUVECs. HUVECs (human umbilical vein endothelial cells) were purchased from Promocell (Heidelberg, Germany) and cultured in endothelial cell growth medium (ECGM, Promocell, Heidelberg, Germany) containing 10% FCS (Biochrom, Berlin, Germany). Experiments were performed using cells at passage 3.
For proliferation assay, 1.5×10^3 HUVECs were cultured for 24 h. Afterwards, cells were either left untreated or treated with novel compounds for 72 h. Proliferation assay was performed using crystal violet as described previously (Koltermann et al. 2007, Cell Mol. Life Sci. 64:1715-1722).

[12] = tested on: HUVECs (human umbilical vein endothelial cells); experiment: HUVEC migration (scratch) assay; format: cell-based; settings: 16 h, read-out: Inhibition of migration (EC50)
Protocol: as §3
For migration assay, confluent HUVECs were scratched with a pipette tip and immediately treated with either starvation medium M199 (serum-free, negative control; PAN Biotech) or full endothelial cell growth medium (positive control). After 16 h, cells were fixed with 3% formaldehyde and images were taken using the TILLvisON system (Lochham, Germany) connected to an Axiovert 200 microscope (Zeiss, Germany). Evaluation of pictures was made by S.CO LifeScience (Garching, Germany). Migration was quantified as the ratio of the area covered with cells and the area of the cell free wound.

IC50 (CDK5/p35): 0.001 µM
SMILES: CC(C)c1[nH]nc2c(NCc3ccc(-c4ccccn4)cc3)nc(NCC(C)(C)O)nc12 [Compound 33]
IC50 [1]: 0.03 µM
IC50 [2]: 0.02 µM
IC50 [3]: 0.01 µM
IC50 [4]: 0.01 µM
IC50 [5]: 0.07 µM
IC50 [6]: 0.03 µM
IC50 [7]: 0.02 µM
IC50 [8]: 0.05 µM
IC50 [9]: 0.01 µM
IC50 (HCT116 (colon carcinoma)): 0.04 µM
caspase-3/7 activity in K562 cells [10]: potent dose-dependent activation of the caspases in nanomolar concentrations
EC50 [11]: 14 nM
EC50 [12]: 22 nM
